# Key:
# ANXA5 = molecular target: T1, ANXA5 (Homo sapiens, UniProt P08758); assay: XL177A-DTB chemoproteomic profiling with XL177A competition, ANXA5; format: binding; details: ANXA5 reporter ion intensity
# T1 construct: endogenous in cells; host or cells: HEK 293AD lysate
# T1 sequence (P08758 1-320): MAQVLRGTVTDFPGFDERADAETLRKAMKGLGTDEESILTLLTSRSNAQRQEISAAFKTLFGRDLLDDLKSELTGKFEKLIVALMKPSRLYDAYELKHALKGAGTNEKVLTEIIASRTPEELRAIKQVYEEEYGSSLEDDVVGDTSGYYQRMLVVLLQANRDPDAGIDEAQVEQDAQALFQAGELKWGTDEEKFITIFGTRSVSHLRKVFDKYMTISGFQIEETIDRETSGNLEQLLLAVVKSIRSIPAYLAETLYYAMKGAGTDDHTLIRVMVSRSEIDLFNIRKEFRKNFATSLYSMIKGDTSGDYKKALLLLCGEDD
# Method: (§1) HEK 293AD cells were lysed as described above, and the lysate was cleared by centrifugation. Samples were diluted to 10 mg/mL, and 200 μL lysate (2 mg protein total) was incubated with the indicated concentrations of XL177A for 4 hours at RT, then 2 μM of WH114A for 4 additional hours. SDS was added to a final concentration of 1.2% (27.2 μL of a 10% stock), and denatured by heating to 80 °C for 5 minutes. After cooling to RT, 1125 μL 1X PBS was added to dilute the final SDS concentration to 0.2%. 50 μL streptavidin agarose slurry was added to each sample, followed by incubation at RT for 3 hours. After streptavidin enrichment, samples were washed vigorously (2×0.2% SDS, 3x PBS, 3x ddH2O). After the final wash, all supernatant was removed using a flat-bottom tip, and the resin was flash frozen and stored at −80 °C until workup for TMT labeling.
# (§2) To remove rapigest, recovered supernatants were acidified with 10% TFA, incubated at 37 °C for 45 minutes, and centrifuged at 14,000 rpm for 15 minutes at 4 °C. Peptides were then desalted by C18, and dried by vacuum centrifugation. Dried peptides were reconstituted in 50 mM pH8.0 TEAB and labeled with TMT reagent at RT for 1 hour. TMT reactions were pooled and treated with hydroxylamine according to the manufacturer’s instructions. Peptide mixtures were then dried, reconstituted in 50 mM ammonium bicarbonate and desalted by SP3[53]. Eluted peptides were then analyzed by nanoflow LC-MS/MS as described[64] with a NanoAcquity UPLC system (Waters, Milford, MA) interfaced to a QExactive HF mass spectrometer (Thermofisher Scientific, San Jose, CA). TMT labeled peptides were injected onto a precolumn (4 cm POROS 10R2, Applied Biosystems, Framingham, MA), resolved on an analytical column (30 µm I.D. × 50 cm packed with 5 µm Monitor C18) and introduced to the mass spectrometer by ESI (spray voltage = 3.5 kV, flow rate ~30 nL/min). The mass spectrometer was operated in data dependent mode such that the 15 most abundant ions in each MS scan (m/z 300–2000, 120 K resolution, target = 3E6, lock mass for 445.120025 enabled) were subjected to MS/MS (m/z 100–2000, 30 K resolution, target = 1E5, max fill time = 100 ms). Dynamic exclusion was selected with a repeat count of 1 and an exclusion time of 30 seconds. MS/MS data was extracted to.mgf using mulitplierz scripts[54],[55] and searched against a forward-reverse human NCBI refseq database using Mascot version 2.6. Search parameters specified fixed carbamidomethylation of cysteine, fixed N-terminal and lysine TMT labelling, and variable oxidation (methionine). Additional multiplierz scripts were used to filter results to 1% FDR and derive protein-level aggregate reporter ion intensities using peptides mapping uniquely into the genome.
# p53 target genes = assay: Quantitative real-time PCR of p53 target genes in MCF7 cells; format: cell-based; details: 1 μM, 24 hours
# Method: After cell treatment under the indicated conditions, total cellular RNA was purified using a Qiagen RNEasy kit. 1 μg of RNA was then converted to cDNA using SuperScript III First-Strand Synthesis (Invitrogen). cDNA from each sample was then combined with the indicated TaqMan probe and 2x MasterMix in a 96-well Fast RT-PCR plate (Invitrogen). qPCR was performed on an Invitrogen 7500 Fast qPCR instrument and gene expression was calculated using the 2^-∆∆Ct method on Graphpad Prism.
# USP7 = USP7 (Homo sapiens, UniProt Q93009); assay: XL177A-DTB chemoproteomic profiling with XL177A competition, USP7; format: binding; parameters: endogenous in cells; host or cells: HEK 293AD lysate
# Chain of USP7 (Q93009 whole entry): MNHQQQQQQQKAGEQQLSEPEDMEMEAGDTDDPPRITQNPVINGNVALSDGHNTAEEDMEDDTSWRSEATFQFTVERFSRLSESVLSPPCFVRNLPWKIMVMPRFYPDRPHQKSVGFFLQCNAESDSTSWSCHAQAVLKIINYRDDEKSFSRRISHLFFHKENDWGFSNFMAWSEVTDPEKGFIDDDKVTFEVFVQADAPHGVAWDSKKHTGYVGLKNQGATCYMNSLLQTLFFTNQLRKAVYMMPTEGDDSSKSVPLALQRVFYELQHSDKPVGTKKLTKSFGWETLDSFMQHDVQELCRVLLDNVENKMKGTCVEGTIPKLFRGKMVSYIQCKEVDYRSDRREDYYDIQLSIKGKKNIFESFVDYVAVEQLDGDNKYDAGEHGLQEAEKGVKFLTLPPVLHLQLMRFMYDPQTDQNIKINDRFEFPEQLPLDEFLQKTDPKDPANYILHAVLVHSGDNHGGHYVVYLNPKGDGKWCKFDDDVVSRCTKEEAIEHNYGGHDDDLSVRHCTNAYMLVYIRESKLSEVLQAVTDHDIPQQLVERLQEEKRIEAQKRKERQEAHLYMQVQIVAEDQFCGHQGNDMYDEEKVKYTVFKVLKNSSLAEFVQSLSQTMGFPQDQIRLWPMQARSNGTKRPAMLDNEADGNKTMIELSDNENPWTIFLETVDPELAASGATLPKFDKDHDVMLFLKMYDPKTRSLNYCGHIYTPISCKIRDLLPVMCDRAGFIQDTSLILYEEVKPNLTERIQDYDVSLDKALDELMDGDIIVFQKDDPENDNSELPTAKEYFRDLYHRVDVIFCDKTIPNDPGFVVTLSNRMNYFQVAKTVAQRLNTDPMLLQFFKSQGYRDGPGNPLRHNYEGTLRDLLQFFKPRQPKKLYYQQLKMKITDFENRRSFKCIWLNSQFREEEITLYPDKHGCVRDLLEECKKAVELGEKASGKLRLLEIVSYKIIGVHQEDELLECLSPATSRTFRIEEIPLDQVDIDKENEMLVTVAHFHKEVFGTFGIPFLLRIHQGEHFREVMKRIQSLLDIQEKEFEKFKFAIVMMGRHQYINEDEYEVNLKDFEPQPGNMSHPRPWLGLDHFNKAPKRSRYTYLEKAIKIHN
# Method: as §1, with “Samples were diluted to 10 mg/mL, and 200 μL lysate (2 mg protein total) was incubated with the indicated concentrations of XL177A for 4 hours at RT, then 2 μM of WH114A for 4 additional hours.” left out
# as §2
# [1] = XL177A-DTB pulldown, HEK293AD lysate pre-treated 100nM XL177A
# [2] = XL177A-DTB pulldown, HEK293AD lysate pre-treated 1uM XL177A
# [3] = XL177A-DTB pulldown, HEK293AD lysate pre-treated 10uM XL177A
# [4] = average of Run 1 and Run 2, 100nM XL177A
# [5] = average of Run 1 and Run 2, 1uM XL177A
# [6] = average of Run 1 and Run 2, 10uM XL177A
# [7] = USP7 reporter ion intensity, XL177A-DTB pulldown, HEK293AD lysate pre-treated 100nM XL177A
# [8] = USP7 reporter ion intensity, XL177A-DTB pulldown, HEK293AD lysate pre-treated 1uM XL177A
# [9] = USP7 reporter ion intensity, XL177A-DTB pulldown, HEK293AD lysate pre-treated 10uM XL177A
# [10] = USP7 reporter ion intensity, average of Run 1 and Run 2, 100nM XL177A
# [11] = USP7 reporter ion intensity, average of Run 1 and Run 2, 1uM XL177A
# [12] = USP7 reporter ion intensity, average of Run 1 and Run 2, 10uM XL177A
smiles,measurement,setting,value
CN1CCN(CCC(=O)Nc2ccc3c(=O)n(CC4(O)CCN(C(=O)[C@@H](CCCNC(=O)c5ccc6c(Cl)c7c(nc6c5)CCCC7)Cc5ccccc5)CC4)cnc3c2)CC1 [XL177A],Run 1 100nM 1,ANXA5; [1],178152
same,Run 1 100nM 2,ANXA5; [1],165955
same,Run 1 100nM 3,ANXA5; [1],128000
same,Run 2 100nM 1,ANXA5; [1],93111
same,Run 2 100nM 2,ANXA5; [1],89444
same,Run 2 100nM 3,ANXA5; [1],79751
same,Run 1 1uM 1,ANXA5; [2],144604
same,Run 1 1uM 2,ANXA5; [2],674321
same,Run 1 1uM 3,ANXA5; [2],223998
same,Run 2 1uM 1,ANXA5; [2],92176
same,Run 2 1uM 2,ANXA5; [2],333280
same,Run 2 1uM 3,ANXA5; [2],123099
same,Run 1 10uM 1,ANXA5; [3],147137
same,Run 1 10uM 2,ANXA5; [3],166473
same,Run 2 10uM 1,ANXA5; [3],88314
same,Run 2 10uM 2,ANXA5; [3],102591
same,AVE 100nM 1,ANXA5; [4],135632
same,AVE 100nM 2,ANXA5; [4],127700
same,AVE 100nM 3,ANXA5; [4],103876
same,AVE 1uM 1,ANXA5; [5],118390
same,AVE 1uM 2,ANXA5; [5],503800
same,AVE 1uM 3,ANXA5; [5],173548
same,AVE 10uM 1,ANXA5; [6],117726
same,AVE 10uM 2,ANXA5; [6],134532
same,"transcription of p53 target genes (CDKN1A, GADD45A, BAX, DDB2)",p53 target genes,stimulating transcription of p53 target genes
same,inhibition of XL177A-DTB labeling,"USP7; HEK293 lysate, XL177A 1 or 10 μM, 5 hours, only USP7 of 566 proteins",> 3 fold
same,Run 1 100nM 1,USP7; [7],31732106
same,Run 1 100nM 2,USP7; [7],30184262
same,Run 1 100nM 3,USP7; [7],32232481
same,Run 2 100nM 1,USP7; [7],31803721
same,Run 2 100nM 2,USP7; [7],30185364
same,Run 2 100nM 3,USP7; [7],32073312
same,Run 1 1uM 1,USP7; [8],8663971
same,Run 1 1uM 2,USP7; [8],7593596
same,Run 1 1uM 3,USP7; [8],8340895
same,Run 2 1uM 1,USP7; [8],8601953
same,Run 2 1uM 2,USP7; [8],7625246
same,Run 2 1uM 3,USP7; [8],8414168
same,Run 1 10uM 1,USP7; [9],7727617
same,Run 1 10uM 2,USP7; [9],7625585
same,Run 2 10uM 1,USP7; [9],7739438
same,Run 2 10uM 2,USP7; [9],7761626
same,AVE 100nM 1,USP7; [10],31767914
same,AVE 100nM 2,USP7; [10],30184813
same,AVE 100nM 3,USP7; [10],32152896
same,AVE 1uM 1,USP7; [11],8632962
same,AVE 1uM 2,USP7; [11],7609421
same,AVE 1uM 3,USP7; [11],8377532
same,AVE 10uM 1,USP7; [12],7733528
same,AVE 10uM 2,USP7; [12],7693606
